What follows are cell lines tested with CC(C)N(CCCNC(=O)Nc1ccc(C(C)(C)C)cc1)C[C@H]1O[C@@H](n2ccc3c(N)ncnc32)[C@H](O)[C@@H]1O + CCNC(=O)c1noc(-c2cc(C(C)C)c(O)cc2O)c1-c1ccc(CN2CCOCC2)cc1 [Luminespib] (partner 0.01 µM) (assay: relative viability (nuclei count vs DMSO), 5 days (fraction); higher = more cells survive). Details: first compound 0.08 µM.
How it was run: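 Nuclei were stained with Hoechst during a one-step fixation (final 0.05% Triton X-100, 1% formaldehyde, 1 ug/ml Hoechst) carried out 5 days after dosing, then counted on 4× images. The cells, lung cancer lines in 1536-well plates, had been dosed by pin tool the day after seeding with one drug alone or a fixed anchor-drug dose plus five library-drug doses (not always all listed) in √10 steps. Relative viability is the nuclei count in treated wells divided by that in vehicle wells, and each value is the median of duplicate plates.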

| Cell Line | relative viability |
| --- | --- |
| NCI-H1650 | 0.207 |
| NCI-H2009 | 0.977 |
| NCI-H1993 | 0.707 |
| NCI-H520 | 0.22 |
| PC-3 [JPC-3] | 0.699 |
| LCLC-103H | 0.765 |
| NCI-H647 | 0.267 |
| NCI-H2228 | 0.218 |
| EMC-BAC-2 | 1.16 |
| NCI-H2087 | 0.211 |
| NCI-H1666 | 0.963 |
| NCI-H650 | 0.665 |
| LK-2 | 0.185 |
| NCI-H2126 | 0.847 |
| SK-MES-1 | 0.693 |
| H3255 | 0.875 |
| COR-L23 | 0.683 |
| COR-L 105 | 0.705 |
| LOU-NH91 | 0.381 |
| ChaGo-K-1 | 0.583 |
| NCI-H2170 | 0.793 |
| NCI-H3122 | 0.0976 |
| HOP-62 | 0.94 |
| HCC-44 | 0.972 |
| NCI-H522 | 0.949 |
| LU99A | 0.234 |
| BEN | 0.347 |
| SW 900 | 0.166 |
| NCI-H1563 | 0.474 |
| ABC-1 | 0.676 |

Same assay, conditions: first compound 0.253 µM

| Cell Line | relative viability |
| --- | --- |
| NCI-H2342 | 0.576 |
| NCI-H1623 | 0.472 |
| PC-14 | 0.24 |
| NCI-H1650 | 0.218 |
| NCI-H2009 | 0.861 |
| NCI-H520 | 0.219 |
| PC-3 [JPC-3] | 0.704 |
| LCLC-103H | 0.944 |
| NCI-H647 | 0.461 |
| NCI-H2228 | 0.191 |
| EMC-BAC-2 | 1.15 |
| NCI-H2087 | 0.198 |
| NCI-H1666 | 0.987 |
| NCI-H650 | 0.803 |
| LK-2 | 0.193 |
| NCI-H2126 | 0.814 |

| Cell Line | relative viability |
| --- | --- |
| SK-MES-1 | 0.723 |
| H3255 | 0.892 |
| COR-L23 | 0.757 |
| COR-L 105 | 0.811 |
| LOU-NH91 | 0.328 |
| ChaGo-K-1 | 0.552 |
| NCI-H2170 | 0.762 |
| NCI-H3122 | 0.0883 |
| HOP-62 | 0.928 |
| HCC-44 | 1.06 |
| NCI-H522 | 1.2 |
| LU99A | 0.277 |
| BEN | 0.461 |
| SW 900 | 0.165 |
| NCI-H1563 | 0.542 |
| ABC-1 | 0.802 |

Same assay, conditions: first compound 0.8 µM

| Cell Line | relative viability |
| --- | --- |
| NCI-H2342 | 0.722 |
| NCI-H1623 | 0.394 |
| PC-14 | 0.213 |
| NCI-H2009 | 1.08 |
| NCI-H520 | 0.239 |
| PC-3 [JPC-3] | 0.779 |
| LCLC-103H | 0.883 |
| NCI-H2228 | 0.178 |
| EMC-BAC-2 | 1.22 |
| NCI-H2087 | 0.276 |
| NCI-H1666 | 1.07 |
| NCI-H650 | 0.666 |
| LK-2 | 0.191 |
| NCI-H2126 | 0.941 |
| SK-MES-1 | 0.929 |
| H3255 | 0.876 |
| COR-L23 | 0.755 |
| COR-L 105 | 0.601 |
| LOU-NH91 | 0.283 |
| ChaGo-K-1 | 0.47 |
| NCI-H2170 | 0.718 |
| NCI-H3122 | 0.117 |
| HOP-62 | 0.817 |
| HCC-44 | 1.1 |
| NCI-H522 | 1.05 |
| LU99A | 0.253 |
| BEN | 0.282 |
| NCI-H1563 | 0.592 |

Same assay, conditions: first compound 2.53 µM

| Cell Line | relative viability |
| --- | --- |
| NCI-H2342 | 0.675 |
| NCI-H1623 | 0.589 |
| PC-14 | 0.175 |
| NCI-H1650 | 0.208 |
| NCI-H2009 | 1.02 |
| NCI-H1993 | 0.927 |
| NCI-H520 | 0.221 |
| PC-3 [JPC-3] | 0.71 |
| LCLC-103H | 0.926 |
| NCI-H647 | 0.241 |
| NCI-H2228 | 0.144 |
| EMC-BAC-2 | 1.24 |
| NCI-H2087 | 0.16 |
| NCI-H1666 | 0.999 |
| NCI-H650 | 0.757 |
| LK-2 | 0.169 |
| NCI-H2126 | 0.88 |

| Cell Line | relative viability |
| --- | --- |
| SK-MES-1 | 0.872 |
| H3255 | 0.838 |
| COR-L23 | 0.739 |
| COR-L 105 | 0.827 |
| LOU-NH91 | 0.333 |
| ChaGo-K-1 | 0.683 |
| NCI-H2170 | 0.661 |
| NCI-H3122 | 0.0934 |
| HOP-62 | 0.863 |
| HCC-44 | 1.15 |
| NCI-H522 | 1.1 |
| LU99A | 0.317 |
| BEN | 0.442 |
| SW 900 | 0.185 |
| NCI-H1563 | 0.533 |
| ABC-1 | 0.635 |

Same assay, conditions: first compound 8 µM

| Cell Line | relative viability |
| --- | --- |
| NCI-H2342 | 0.724 |
| NCI-H1623 | 0.547 |
| PC-14 | 0.181 |
| NCI-H1650 | 0.226 |
| NCI-H2009 | 0.884 |
| NCI-H1993 | 0.84 |
| NCI-H520 | 0.232 |
| PC-3 [JPC-3] | 0.683 |
| LCLC-103H | 0.93 |
| NCI-H647 | 0.245 |
| NCI-H2228 | 0.18 |
| EMC-BAC-2 | 1.13 |
| NCI-H2087 | 0.151 |
| NCI-H1666 | 0.941 |
| NCI-H650 | 0.774 |
| LK-2 | 0.214 |
| NCI-H2126 | 0.925 |

| Cell Line | relative viability |
| --- | --- |
| SK-MES-1 | 0.717 |
| H3255 | 0.837 |
| COR-L23 | 0.545 |
| COR-L 105 | 0.736 |
| LOU-NH91 | 0.368 |
| ChaGo-K-1 | 0.643 |
| NCI-H2170 | 0.629 |
| NCI-H3122 | 0.102 |
| HOP-62 | 0.9 |
| HCC-44 | 1.03 |
| NCI-H522 | 1.22 |
| LU99A | 0.222 |
| BEN | 0.303 |
| SW 900 | 0.19 |
| NCI-H1563 | 0.515 |
| ABC-1 | 0.583 |

— the supplement of paper PMC10307832
